# Tests used:
# human red blood cells = assay: FDG labeling of human red blood cells, 5 minute incubation at room temperature (Example 1); format: cell-based
# Experimental: 150 microCuries of FDG in a 100 microliter volume was incubated with 250 microliters of human red blood cells to a final solution volume of 500 microliters (NaCl/KCl/EDTA solution contains 140 mM NaCl, 4 mM KCl, 2.5 mM K2EDTA dihydrate). FDG incubation duration=5 minutes at room temperature. Triplicate samples were used. Samples were centrifuged 1000 g 10 minutes after 5 minute FDG incubation, and RBC pellet was washed twice with 1.0 ml of NaCl/KCl/EDTA solution. A sample of the collected supernatant and a pellet sample was counted in a gamma counter with 18-F gating. 3% incorporation rate=4.5 microCurie of incorporated FDG/250 microliters of human red blood cell=18 microCurie of FDG/1 ml human red blood cells. Thus, 60 milliliters of whole blood from a patient should yield approximately 432-486 microCuries of FDG labeled red blood cells. (Assumes average 40% female hematocrit and 45% male hematocrit).
# [1] = tested on: splenectomized NSG immunodeficient mice; assay: ECG-gated whole body microPET/CT imaging of NSG immunodeficient mice; format: in vivo, mouse; settings: for time activity curve (TAC) of the heart, pattern: observation period 20-30 minutes; for anatomic distribution of FDG in the heart (fused microPET/CT images) / whole body distribution of FDG activity on microPET image / urinary excretion of FDG (kidneys, bladder) on microPET image: tail vein injection; for whole body distribution of FDG activity on microPET image: injected activity differs per figure
# Experimental: 4-6 wk old splenectomized NSG immunodeficient mice (Jax Lab) were fasted O/N and phlebotomized (200-250 μl), prior to microPET imaging with an INVEON PET/CT preclinical scanner (Siemens). […]
# PET images were analyzed with INVEON workstation software (Siemens). Patlak compartment plot option was chosen. For 3D PET and 4D PET data sets, VOIs were selected manually based on corresponding CT images: heart, leg muscle, liver, kidney and brain.
# ECG-gated whole body microPET imaging of NSG immunodeficient mice: 4-6 week old splenectomized NOD scid gamma (NSG™) immunodeficient mice were obtained from The Jackson Laboratory. Mice were placed in specialized housing for immunodeficient mouse in the Moffitt Cancer Center (MCC) vivarium. Approval for all animal experimentation was first obtained from the University of South Florida (USF) Institutional Animal Care and Use Committee (IACUC). All animal experimentation was performed in accordance to federal regulations and USF IACUC principles and procedures. Animal imaging was performed in the MCC Small Animal Imaging Laboratory with an INVEON PET/CT (Siemens Medical Inc., Knoxville, Tenn.) preclinical scanner. Mice are first fasted the night before microPET imaging and undergo phlebotomy of ≈200-250 μl whole blood via retro-orbital venous plexus puncture immediately prior to microPET imaging. Blood glucose from the phlebotomized blood is measured. A tail vein microcatheter is placed in each mouse under inhalational isoflurane anesthesia. […] The PET part of the system has 64 detector blocks with total field of view (FOV) 12.7 cm and a spatial resolution of 1.4 mm. […] The ECG signal in each mouse was detected with three flat electrodes placed in two front and one rear limbs of each animal (ground lead on a rear leg). […] The threshold for TTL cardiac gating signals was set in a rising mode of R-wave peak. The PET list-mode data were reconstructed using 3D-OSEM iterative algorithm with four iterations and eight subsets, with a final image volume of 256×256×256 voxels. Voxel effective dimensions were 1.4×1.4×1.4 mm. For each animal there are three data sets: standard 3-dimensional (3D) PET reconstruction, resulting in a motion-time average 3D PET image; dynamic 3D PET reconstruction with 30 frames; and the phase-based 4-dimensional (regular 3-dimensional plus time, 4D) PET cardiac reconstruction, with four cardiac gates binning. In all cases, CT attenuation correction was applied to the PET images.
# PET images of the mice were analyzed using INVEON Workstation Software (Siemens Medical Inc., Knoxville, Tenn.). Vendor software-supplied Patlak compartment plot option was selected (Patlak et al., 1983). For 3D PET and 4D PET data sets multiple volumes of interest (VOI) were selected manually based on corresponding CT images including: heart, leg muscle, liver, kidney and brain. […] Dynamic activity curves were plotted for VOIs using dynamic 3D PET data set for each animal. The 4D PET data were used for defining cardiac function. First the heart was segmented on CT images based on anatomical features, after that segmented volume (cardiac PET VOI) was transferred into co-registered PET images.
# human RBCs = assay: FDG uptake by human RBCs (% total FDG incorporation, dose calibrator counting); format: cell-based; settings: for mean % total FDG incorporation: 30' 37° C. incubation with 37-74 MBq FDG (text b108)
# Experimental: […] 30′, centrifuged 1000 g 10′, and washed twice in 4× volume 1×EDTA solution. […] Sample/wash aliquots were counted in an Atomlab 600 dose calibrator (Biodex) to measure % retained FDG.
# Human red blood cell (RBC) preparation and FDG-RBC labeling: Packed human red blood cells collected in standard anticoagulant citrate dextrose (ACD) solution (either ≤24 hours post phlebotomy or ˜5 day post phlebotomy) were obtained from Zen-Bio, Inc. 370-740 Megabecquerel (MBq) (1 ml) USP grade 2-deoxy-2-(^18F)fluoro-D-glucose (FDG) were obtained from Cardinal Health. Vendor supplied human RBCs are centrifuged 1000 g 10′, and the remaining anticoagulant and buffy coat residual are gently aspirated. RBCs are then gently washed in a 4× volume of filter sterilized “1×EDTA” solution (140 mM NaCl, 4 mM KCl, 2.5 mM Ethylenediaminetetraacetic acid dipotassium salt dihydrate (K2EDTA dihydrate)), centrifuged at 1000 g 10′, and the wash is manually aspirated. […] Samples are then centrifuged at 1000 g 10′ and the supernatant is carefully aspirated. RBCs are then washed and centrifuged twice with 4× volumes of 1×EDTA solution. For experiments characterizing residual unincorporated FDG, a 3rd wash/centrifugation step was performed. […] Aliquots from all samples and washes are counted with the Atomlab™ 600 dose calibrator (Biodex Medical Systems, Inc.).
# [2] = tested on: splenectomized NSG immunodeficient mouse; assay: microPET imaging of mice injected with FDG-labeled human erythrocytes or free FDG (Example 2); format: in vivo; settings: tail vein catheter injection (≈47 microCuries FDG-labeled erythrocytes or ≈32 microCuries free FDG), 20-minute PET
# Experimental: Approximately 47 microCuries of FDG-labeled human erythrocytes were injected via tail vein catheter into a splenectomized NSG immunodeficient mouse. The mouse was placed into a Siemens INVEON microPET scanner, and 18-F PET imaging of the mouse was performed over a 20-minute time period.
# Approximately 32 microCuries of free FDG were injected via tail vein catheter into a second splenectomized NSG immunodeficient mouse. The mouse was placed into the Siemens INVEON microPET scanner, and 18-F PET imaging of the mouse was performed over a 20-minute time period.
substance,measurement,setting,value
2-deoxy-2-(^18F)fluoro-D-glucose [FDG],incorporation rate,"human red blood cells; 150 microCuries FDG, 250 microliters human red blood cells, 5 minutes at room temperature",3%
same,FDG/1 ml human red blood cells,human red blood cells; 5 minutes at room temperature,18 microCurie
same,incorporated FDG/250 microliters of human red blood cell,"human red blood cells; 5 minutes at room temperature, 150 microCuries FDG",4.5 microCurie
same,FDG labeled red blood cells yielded from 60 milliliters of whole blood from a patient,"human red blood cells; extrapolated, assumes 40% female and 45% male hematocrit",432-486 microCuries
same,"time activity curve (TAC) of the heart, pattern",[1],increases steadily over the observation period of 20-30 minutes
same,"time activity curve (TAC) of the heart, pattern",[1]; listed as free FDG,steady increase in FDG activity over time
same,anatomic distribution of FDG in the heart (fused microPET/CT images),[1],marked myocardial uptake of FDG in the left ventricle
same,whole body distribution of FDG activity on microPET image,[1]; listed as free 18F-FDG,normal marked FDG uptake in the myocardium
same,whole body distribution of FDG activity on microPET image,[1]; listed as free FDG,intense FDG accumulation in the myocardium and brain
same,anatomic distribution of FDG in the heart (fused microPET/CT images),[1]; listed as free 18F-FDG,intense physiologic FDG uptake by myocardium of the left ventricle
same,"urinary excretion of FDG (kidneys, bladder) on microPET image",[1]; listed as free 18F-FDG,physiologic FDG excretion into the kidneys and bladder
same,"urinary excretion of FDG (kidneys, bladder) on microPET image",[1]; listed as free FDG,marked urinary excretion in the kidneys and bladder
same,FDG incorporated in packed RBCs on clinical translation of the labeling/wash protocol,"human RBCs; 10 ml's packed RBCs, initial 740 MBq FDG, inventor's prediction",up to 370 MBq
same,mean % total FDG incorporation,human RBCs; 250 μl 1 day old RBCs,85.3%±1.8%
same,% total FDG incorporation,"human RBCs; 250 μl 1 day old human RBCs, 37° C., 30' (text b110)",73.3%±3.6%
same,% total FDG incorporation,"human RBCs; 250 μl 1 day old human RBCs, 37° C., 30 minutes (time course)",78.3%±0.9
same,% total FDG incorporation,"human RBCs; 250 μl 1 day old human RBCs, 37° C., 1 hour (time course)",85.0%±0.0%
same,% total FDG incorporation,"human RBCs; 250 μl 1 day old human RBCs, 37° C., 2 hours (FIG. 3 legend)",73.3%±3.6%
same,% total FDG incorporation,"human RBCs; 250 μl 1 day old human RBCs, 37° C., 2 hours (time course)",85.3%±0.3%
same,% total FDG incorporation,"human RBCs; 250 μl 1 day old human RBCs, 2 hours (FIG. 4 legend)",85.3%±1.8%
same,% total FDG incorporation,"human RBCs; 250 μl 1 day old human RBCs, room temperature (~25° C.), 2 hours",10.3%±1.1%
same,% total FDG incorporation,"human RBCs; 250 μl 5 day old human RBCs, 2 hours (FIG. 4 legend)",3.3%±0.2%
same,mean % total FDG incorporation,human RBCs; 5 day old RBCs,3.3%±0.2%
same,internal FDG uptake (in words),human RBCs; human RBCs collected and used ≈5 days after phlebotomy,negligible rate of internal FDG uptake
same,tracer distribution on PET image,[2],"majority of free FDG uptake is seen in the heart muscle, bladder, and kidneys"
